Data set [1] can be described thus: plasma enterolactone after 7-hydroxymatairesinol capsules in human subjects. To be noted: healthy male volunteers, capsules 315 mg/day (3 x 105 mg), 29 days, FIG. 2. The data set is classed as in vivo. Here is the method: The data for experimental days 1 and 29 is shown. On the x-axis, the time (hrs) after the first 105 mg dose is shown. The arrows denote the administration of the three 105 mg HMRlignan™ (hydroxymatairesinol) doses during the test days 1 and 29. N=6.
In brief, healthy male volunteers ingested capsule preparation of 7-hydroxymatairesinol, at total daily dose of 315 mg, divided in three 105 mg portion for morning, afternoon and evening dose. The subjects ingested the product continuously for 29 days. […] The levels were measured with a high-performance liquid chromatography coupled with tandem mass spectrometer system (Applied Biosystems Inc.).

The conditions of data set [2]: disclosed in WO 00/59946; cited from earlier work.

Regarding `COc1cc(C[C@H]2C(=O)OC[C@@H]2[C@H](O)c2ccc(O)c(OC)c2)ccc1O` [7-hydroxymatairesinol], in data set [1], the circulating enterolactone concentration entry is recorded as “sustained increase”. Besides, the “conversion to enterolactone in vivo” value in data set [2] is “efficiently converted to enterolactone”.

The record behind these values is US20080057140A1, “Use of a Lignan for the Manufacture of a Composition for Preventing or Alleviating of Symptoms Relating to Estrogen Deficiency” (priority 2005, published 2008).
